Laboratory results published in PMC3407795 (EJNMMI Research, 2012).
Read-outs that look alike come from different tables or passages of the source.

Key:
[1] = Biodistribution in AR4-2J tumor-bearing mice; type: in vivo; details: female, mouse, iv, total radioactivity, AR4-2J tumor SCID mice, mean ± SD; for tissue uptake at 1 h: 1 h pi
Description: In the flanks of each of female SCID mice, inocula (150 μL) containing a suspension of 0.8 × 10^7 AR4-2J cells in PBS buffer were subcutaneously injected. […] Mice were sacrificed at 4 h pi, and biodistribution was studied as described above.
(§1) The in vivo data presented as mean %ID/g ± SD (n ≥ 4) were statistically analyzed with Student’s t test (Prism^TM 2.01, GraphPad Software, San Diego, CA, USA). Analyses were 2-tailed, and a P value < 0.05 was considered statistically significant.

[2] = Biodistribution in HEK293-hsst2A+ tumor-bearing mice; type: in vivo; details: mouse, iv, total radioactivity, HEK293-hsst2A+ tumor SCID mice, mean ± SD
Description: (§2) In the flanks of SCID mice, inocula (150 μL) containing a suspension of 1.8 × 10^7 HEK293-hsst2A^+, -hsst3^+ or -hsst5^+ cells in PBS were subcutaneously injected. Tumors of substantial size were grown within 3 weeks, whereupon biodistribution experiments were performed.
as §1

[3] = Biodistribution in HEK293-hsst5+ tumor-bearing mice; type: in vivo; details: mouse, iv, total radioactivity, HEK293-hsst5+ tumor SCID mice, 4 h pi, mean ± SD
Description: as §2, §1

[4] = Metabolism in blood (in vivo stability); set-up: species or system mouse; details: healthy male Swiss albino mice, blood collected 5 min after iv injection (3 nmol), RP-HPLC radioanalysis
Description: The animals were kept for 5 min in cages with free access to water. They were sacrificed by cardiac puncture under ether anesthesia, and blood was withdrawn with a syringe and immediately placed in a pre-chilled EDTA-containing polypropylene vial on ice. Blood samples were centrifuged at 2,000 × g at 4 °C for 10 min.

[5] = Biodistribution in HEK293-hsst3+ tumor-bearing mice; type: in vivo; details: mouse, iv, total radioactivity, HEK293-hsst3+ tumor SCID mice, 4 h pi, mean ± SD
Description: as §2, §1

[6] = Biodistribution in AR4-2J tumor-bearing mice; type: in vivo; details: female, mouse, iv, total radioactivity, AR4-2J tumor SCID mice, 1 h pi, mean ± SD
[7] = Biodistribution in healthy mice; type: in vivo; details: male, mouse, total radioactivity, healthy Swiss albino mice
Description: In the in vivo receptor blockade animal group, excess Tate (50 nmol) was administered intravenously (iv) together with the radioligand. Animals were sacrificed in groups of four at 4- and 24-h time points post injection (pi). […] Tissue distribution data were calculated as percent injected dose per gram (%ID/g) applying a suitable algorithm.
as §1

[8] = blood, 10 pmol, 4 h pi, read-out: Blood uptake
[9] = femur, 10 pmol, 4 h pi, read-out: Femur uptake
[10] = heart, 10 pmol, read-out: Heart uptake
[11] = heart, 10 pmol, 4 h pi, read-out: Heart uptake
[12] = intestines, 10 pmol total peptide, read-out: Intestines uptake
[13] = intestines, 10 pmol total peptide, 4 h pi, read-out: Intestines uptake
[14] = 10 pmol, 4 h pi, read-out: Tumor uptake
[15] = kidneys, 10 pmol, read-out: Kidneys uptake
[16] = kidneys, 10 pmol, 4 h pi, read-out: Kidneys uptake
[17] = liver, 10 pmol, read-out: Liver uptake
[18] = liver, 10 pmol, 4 h pi, read-out: Liver uptake
[19] = lung, 10 pmol total peptide, read-out: Lung uptake
[20] = lung, 10 pmol total peptide, 4 h pi, read-out: Lung uptake
[21] = muscle, 10 pmol total peptide, read-out: Muscle uptake
[22] = muscle, 10 pmol total peptide, 4 h pi, read-out: Muscle uptake
[23] = pancreas, 10 pmol, read-out: Pancreas uptake
[24] = pancreas, 10 pmol, 4 h pi, read-out: Pancreas uptake
[25] = spleen, 10 pmol total peptide, 4 h pi, read-out: Spleen uptake
[26] = stomach, 10 pmol, read-out: Stomach uptake
[27] = stomach, 10 pmol, 4 h pi, read-out: Stomach uptake
[28] = blood, 10 pmol, read-out: Blood uptake
[29] = 10 pmol, read-out: Tumor uptake
[30] = spleen, 10 pmol total peptide, read-out: Spleen uptake
[31] = femur, 10 pmol, read-out: Femur uptake

SMILES: C[C@H](NC(=O)CN1CCN(CC(=O)O)CCN(CC(=O)O)CCN(CC(=O)O)CC1)C(=O)NCC(=O)N[C@H]1CSSC[C@@H](C(=O)O)NC(=O)[C@H](CO)NC(=O)[C@H]([C@@H](C)O)NC(=O)[C@H](Cc2ccccc2)NC(=O)[C@H]([C@@H](C)O)NC(=O)[C@H](CCCCN)NC(=O)[C@@H](Cc2c[nH]c3ccccc23)NC(=O)[C@H](Cc2ccccc2)NC(=O)[C@H](Cc2ccccc2)NC(=O)[C@H](CC(N)=O)NC(=O)[C@H](CCCCN)NC1=O [[^111In]AT2S, metal not drawn]
- tissue uptake at 4 h [1, 8]: 0.19 ± 0.02 %ID/g
- tissue uptake at 4 h ([1]; blood, 4 h pi + co-injection of 50 nmol Tate, read-out: Blood uptake, blocked): 0.26 ± 0.03 %ID/g
- tissue uptake at 4 h [1, 9]: 0.4 ± 0.24 %ID/g
- tissue uptake at 4 h ([1]; femur, 4 h pi + co-injection of 50 nmol Tate, read-out: Femur uptake, blocked): 0.19 ± 0.02 %ID/g
- tissue uptake at 1 h [1, 10]: 0.67 ± 0.12 %ID/g
- tissue uptake at 4 h [1, 11]: 0.18 ± 0.05 %ID/g
- tissue uptake at 4 h ([1]; heart, 4 h pi + co-injection of 50 nmol Tate, read-out: Heart uptake, blocked): 0.17 ± 0.04 %ID/g
- tissue uptake at 1 h [1, 12]: 1.98 ± 0.29 %ID/g
- tissue uptake at 4 h [1, 13]: 1.92 ± 0.25 %ID/g
- tissue uptake at 4 h ([1]; intestines, 4 h pi + co-injection of 50 nmol Tate, read-out: Intestines uptake, blocked): 0.77 ± 0.58 %ID/g
- tissue uptake at 4 h [1, 14]: 1.82 ± 0.36 %ID/g
- tissue uptake at 4 h ([1]; 4 h pi + co-injection of 50 nmol Tate, read-out: Tumor uptake, blocked): 0.21 ± 0.17 %ID/g
- tissue uptake at 1 h [1, 15]: 23.8 ± 4.28 %ID/g
- tissue uptake at 4 h [1, 16]: 21.1 ± 4.43 %ID/g
- tissue uptake at 4 h ([1]; kidneys, 4 h pi + co-injection of 50 nmol Tate, read-out: Kidneys uptake, blocked): 24.4 ± 9.15 %ID/g
- tissue uptake at 1 h [1, 17]: 1.27 ± 0.09 %ID/g
- tissue uptake at 4 h [1, 18]: 0.95 ± 0.21 %ID/g
- tissue uptake at 4 h ([1]; liver, 4 h pi + co-injection of 50 nmol Tate, read-out: Liver uptake, blocked): 1.02 ± 0.11 %ID/g
- tissue uptake at 1 h [1, 19]: 2.05 ± 0.52 %ID/g
- tissue uptake at 4 h [1, 20]: 1.43 ± 1.36 %ID/g
- tissue uptake at 4 h ([1]; lung, 4 h pi + co-injection of 50 nmol Tate, read-out: Lung uptake, blocked): 3.3 ± 4.93 %ID/g
- tissue uptake at 1 h [1, 21]: 0.22 ± 0.02 %ID/g
- tissue uptake at 4 h [1, 22]: 0.06 ± 0.01 %ID/g
- tissue uptake at 4 h ([1]; muscle, 4 h pi + co-injection of 50 nmol Tate, read-out: Muscle uptake, blocked): 0.07 ± 0.01 %ID/g
- tissue uptake at 1 h [1, 23]: 7.35 ± 0.74 %ID/g
- tissue uptake at 4 h [1, 24]: 5.13 ± 0.75 %ID/g
- tissue uptake at 4 h ([1]; pancreas, 4 h pi + co-injection of 50 nmol Tate, read-out: Pancreas uptake, blocked): 0.15 ± 0.05 %ID/g
- tissue uptake at 4 h [1, 25]: 1.1 ± 0.63 %ID/g
- tissue uptake at 4 h ([1]; spleen, 4 h pi + co-injection of 50 nmol Tate, read-out: Spleen uptake, blocked): 0.61 ± 0.18 %ID/g
- tissue uptake at 1 h [1, 26]: 3.23 ± 0.77 %ID/g
- tissue uptake at 4 h [1, 27]: 1.81 ± 0.47 %ID/g
- tissue uptake at 4 h ([1]; stomach, 4 h pi + co-injection of 50 nmol Tate, read-out: Stomach uptake, blocked): 0.18 ± 0.07 %ID/g
- tissue uptake at 4 h [2, 8]: 0.23 ± 0.07 %ID/g
- tissue uptake at 4 h ([2]; blood, 4 h pi + co-injection of 35 nmol DP2, read-out: Blood uptake, blocked): 0.66 ± 0.35 %ID/g
- tissue uptake at 4 h [2, 9]: 0.24 ± 0.09 %ID/g
- tissue uptake at 4 h ([2]; femur, 4 h pi + co-injection of 35 nmol DP2, read-out: Femur uptake, blocked): 0.21 ± 0.11 %ID/g
- tissue uptake at 4 h [2, 11]: 0.22 ± 0.05 %ID/g
- tissue uptake at 4 h ([2]; heart, 4 h pi + co-injection of 35 nmol DP2, read-out: Heart uptake, blocked): 0.38 ± 0.1 %ID/g
- tissue uptake at 4 h [2, 13]: 2 ± 0.48 %ID/g
- tissue uptake at 4 h ([2]; intestines, 4 h pi + co-injection of 35 nmol DP2, read-out: Intestines uptake, blocked): 1.74 ± 1.02 %ID/g
- tissue uptake at 4 h [2, 14]: 1.49 ± 0.2 %ID/g
- tissue uptake at 4 h ([2]; 4 h pi + co-injection of 35 nmol DP2, read-out: Tumor uptake, blocked): 0.27 ± 0.2 %ID/g
- tissue uptake at 4 h [2, 16]: 23.2 ± 7.04 %ID/g
- tissue uptake at 4 h ([2]; kidneys, 4 h pi + co-injection of 35 nmol DP2, read-out: Kidneys uptake, blocked): 25.5 ± 3.7 %ID/g
- tissue uptake at 4 h [2, 18]: 1.31 ± 0.36 %ID/g
- tissue uptake at 4 h ([2]; liver, 4 h pi + co-injection of 35 nmol DP2, read-out: Liver uptake, blocked): 0.963 ± 0.67 %ID/g
- tissue uptake at 4 h [2, 20]: 1.37 ± 0.55 %ID/g
- tissue uptake at 4 h ([2]; lung, 4 h pi + co-injection of 35 nmol DP2, read-out: Lung uptake, blocked): 0.47 ± 0.08 %ID/g
- tissue uptake at 4 h [2, 22]: 0.07 ± 0.02 %ID/g
- tissue uptake at 4 h ([2]; muscle, 4 h pi + co-injection of 35 nmol DP2, read-out: Muscle uptake, blocked): 0.07 ± 0.03 %ID/g
- tissue uptake at 4 h [2, 24]: 5.73 ± 1.28 %ID/g
- tissue uptake at 4 h ([2]; pancreas, 4 h pi + co-injection of 35 nmol DP2, read-out: Pancreas uptake, blocked): 0.16 ± 0.1 %ID/g
- tissue uptake at 4 h [2, 25]: 0.46 ± 0.11 %ID/g
- tissue uptake at 4 h ([2]; spleen, 4 h pi + co-injection of 35 nmol DP2, read-out: Spleen uptake, blocked): 0.5 ± 0.36 %ID/g
- tissue uptake at 4 h [2, 27]: 1.96 ± 0.53 %ID/g
- tissue uptake at 4 h ([2]; stomach, 4 h pi + co-injection of 35 nmol DP2, read-out: Stomach uptake, blocked): 1.29 ± 0.36 %ID/g
- tissue uptake at 4 h [3, 28]: 0.1 ± 0.04 %ID/g
- tissue uptake at 4 h [3, 10]: 0.15 ± 0.02 %ID/g
- tissue uptake at 4 h [3, 12]: 1.54 ± 0.09 %ID/g
- tissue uptake at 4 h [3, 29]: 0.41 ± 0.12 %ID/g
- tissue uptake at 4 h [3, 15]: 24.1 ± 1.21 %ID/g
- tissue uptake at 4 h [3, 17]: 1.1 ± 0.08 %ID/g
- tissue uptake at 4 h ([3]; lung, 10 pmol, read-out: Lung uptake): 0.56 ± 0.28 %ID/g
- tissue uptake at 4 h [3, 21]: 0.06 ± 0.01 %ID/g
- tissue uptake at 4 h [3, 23]: 2.79 ± 0.4 %ID/g
- tissue uptake at 4 h [3, 30]: 0.78 ± 0.07 %ID/g
- tissue uptake at 4 h [3, 26]: 3.06 ± 0.73 %ID/g
- intact radiopeptide detected in blood [4]: 6.5%
- tissue uptake at 4 h [5, 28]: 0.19 ± 0.03 %ID/g
- tissue uptake at 4 h [5, 31]: 0.23 ± 0.03 %ID/g
- tissue uptake at 4 h [5, 10]: 0.15 ± 0.04 %ID/g
- tissue uptake at 4 h [5, 12]: 2.39 ± 0.43 %ID/g
- tissue uptake at 4 h [5, 29]: 1.24 ± 0.27 %ID/g
- tissue uptake at 4 h [5, 15]: 23.4 ± 4.69 %ID/g
- tissue uptake at 4 h [5, 17]: 1.02 ± 0.19 %ID/g
- tissue uptake at 4 h [5, 19]: 0.68 ± 0.29 %ID/g
- tissue uptake at 4 h [5, 21]: 0.06 ± 0.01 %ID/g
- tissue uptake at 4 h [5, 23]: 3.33 ± 0.4 %ID/g
- tissue uptake at 4 h [5, 30]: 0.82 ± 0.11 %ID/g
- tissue uptake at 4 h [5, 26]: 3.41 ± 0.97 %ID/g
- tissue uptake at 1 h [6, 28]: 1.34 ± 0.21 %ID/g
- tissue uptake at 1 h [6, 31]: 0.49 ± 0.12 %ID/g
- tissue uptake at 1 h [6, 29]: 3.05 ± 0.51 %ID/g
- tissue uptake at 1 h [6, 30]: 0.84 ± 0.21 %ID/g
- tissue uptake at 4 h ([7]; kidney, 10 pmol total peptide, 4 h pi, iv 10 pmol, read-out: Kidney uptake): 22.9 %ID/g
- tissue uptake at 24 h ([7]; kidney, 10 pmol total peptide, 24 h pi, iv 10 pmol): 7.6 %ID/g
- tissue uptake at 4 h ([7]; pancreas, 10 pmol total peptide, 4 h pi, iv 10 pmol, read-out: Pancreas uptake): 2.9 %ID/g
- tissue uptake at 4 h ([7]; pancreas, iv, 4 h pi + excess Tate (50 nmol), read-out: Pancreas uptake, sst2 blockade): 0.17 %ID/g
